Earlier results, collected in patent publication US20110008801A1, “METHODS FOR MEASURING CELL-CELL OR CELL-MATRIX ADHESIVE FORCES AND COMPOUNDS FOR DISRUPTING ADHESIVE FORCES IN BIOLOGICAL SYSTEMS” (Worcester Polytechnic Institute, priority 2006, published 2011).

Test system: UPEC, type 1 and P fimbriated E. coli

In the case of `O=C(CO)[C@@H](O)[C@H](O)[C@H](O)CO` [fructose], the “adhesion of fimbriated E. coli” value is listed as “inhibited the adhesion of bacteria with type 1 fimbriae only”.
